Measurements: patent US12568972B2, “Pyridazinol compounds and derivatives, preparation methods, herbicidal compositions and applications thereof” (Qingdao Kingagroot Chemical Compound Co., Ltd., priority 2018, dated 2026)

The compounds below were run on Veronica polita (assay: Post-emergence test, weed control effect). Conditions: Dose 3000 g/ha, after 3 weeks.
Type: in vivo
Method in brief: (§1)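 Weeds sown in soil-filled pots and sprayed at 2-3 leaf stage (2-3 weeks after sowing) with compound in acetone/Tween-80/water plus 80% vegetable oil methyl ester synergist at 1500 g/ha. After 3 weeks in the greenhouse, fresh-weight growth inhibition scored on a 0-10 scale (10 = completely dead).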
Cn1cc(S(=O)(=O)Oc2cc(C(F)(F)F)nnc2-c2cccc(F)c2)cn1 [Compound 1-151] was tested, and the “weed control effect, Veronica polita (activity level)” value (shortened to “weed control effect, Veronica polita”) was 10. With Oc1cc(C(F)(F)F)nnc1-c1ccccc1Br [Compound 772] the “weed control effect (activity level), Veronica polita” value was 10. Cc1nc2cc(-c3nnc(C(F)(F)F)cc3O)ccc2o1 [Compound 597] was tested, and the “weed control effect (activity level), Veronica polita” value was 10. With CCn1nccc1-c1nnc(C(F)(F)F)cc1O [Compound 826] the “weed control effect (activity level), Veronica polita” value was 10. Oc1cc(C(F)(F)F)nnc1-c1cncc(C(F)(F)F)c1 [Compound 977] was tested, and the “weed control effect (activity level), Veronica polita” value was 10. For CN(C)c1ccc(C(=O)Oc2cc(C(F)(F)F)nnc2-c2cccc(F)c2)cc1 [Compound 1-90], the “weed control effect, Veronica polita” value was 10. For O=S(=O)(Oc1cc(C(F)(F)F)nnc1-c1ccc(F)c(F)c1)c1ccc(Cl)cc1F [Compound 1-128], the “weed control effect, Veronica polita” value was 10. For Oc1cc(C(F)(F)F)nnc1-c1cncc(Br)c1 [Compound 967], the “weed control effect (activity level), Veronica polita” value was 10. Oc1cc(C(F)(F)F)nnc1-c1cnc(F)cc1F [Compound 989] was tested, and the “weed control effect (activity level), Veronica polita” value was 10. Cc1ccc(-c2nnc(C(F)(F)F)cc2OC(=O)OCC(C)(C)C)c([N+](=O)[O-])c1 [Compound 1-33] was tested, and the “weed control effect, Veronica polita” value was 10. In the case of Cc1ccc(S(=O)(=O)Oc2cc(C(F)(F)F)nnc2-c2ccnc(F)c2)cc1 [Compound 1-126], the “weed control effect, Veronica polita” value was 10. For Oc1cc(C(F)(F)F)nnc1-c1ccc(F)nc1Cl [Compound 1003], the “weed control effect (activity level), Veronica polita” value was 10. In the case of Cn1cc(-c2nnc(C(F)(F)F)cc2O)cn1 [Compound 839], the “weed control effect (activity level), Veronica polita” value was 10. For CC(C)=NOc1cc(C(F)(F)F)nnc1-c1ccc(F)c(F)c1 [Compound 1-169], the “weed control effect, Veronica polita” value was 10. With CCN(CC)C(=S)Oc1cc(C(F)(F)F)nnc1-c1ccc(F)cc1 [Compound 1-162] the “weed control effect, Veronica polita” value was 10. In the case of O=C(Oc1cc(C(F)(F)F)nnc1-c1ccc(Cl)cc1)c1ccccc1Cl [Compound 1-83], the “weed control effect, Veronica polita” value was 10. With Cc1ccc(-c2nnc(C(F)(F)F)cc2O)cn1 [Compound 974] the “weed control effect (activity level), Veronica polita” value was 10. With CCO/C=C/C(=O)Oc1cc(C(F)(F)F)nnc1-c1cccc(F)c1 [Compound 1-75] the “weed control effect, Veronica polita” value was 10.

Each compound was assayed on Amaranthus retroflexus (assay: Post-emergence test, weed control effect). Conditions: Dose 3000 g/ha, after 3 weeks.
Type: in vivo
Method in brief: as §1
Cn1cc(S(=O)(=O)Oc2cc(C(F)(F)F)nnc2-c2cccc(F)c2)cn1 [Compound 1-151] was tested, and the “weed control effect, Amaranthus retroflexus (activity level)” value was 10. With Oc1cc(C(F)(F)F)nnc1-c1ccccc1Br [Compound 772] the “weed control effect (activity level), Amaranthus retroflexus” value was 10. In the case of Cc1nc2cc(-c3nnc(C(F)(F)F)cc3O)ccc2o1 [Compound 597], the “weed control effect (activity level), Amaranthus retroflexus” value was 10. With CCn1nccc1-c1nnc(C(F)(F)F)cc1O [Compound 826] the “weed control effect (activity level), Amaranthus retroflexus” value was 10. For Oc1cc(C(F)(F)F)nnc1-c1cncc(C(F)(F)F)c1 [Compound 977], the “weed control effect (activity level), Amaranthus retroflexus” value was 10. For CN(C)c1ccc(C(=O)Oc2cc(C(F)(F)F)nnc2-c2cccc(F)c2)cc1 [Compound 1-90], the “weed control effect, Amaranthus retroflexus (activity level)” value was 10. O=S(=O)(Oc1cc(C(F)(F)F)nnc1-c1ccc(F)c(F)c1)c1ccc(Cl)cc1F [Compound 1-128] was tested, and the “weed control effect, Amaranthus retroflexus (activity level)” value was 10. With Oc1cc(C(F)(F)F)nnc1-c1cncc(Br)c1 [Compound 967] the “weed control effect (activity level), Amaranthus retroflexus” value was 10. In the case of Oc1cc(C(F)(F)F)nnc1-c1cnc(F)cc1F [Compound 989], the “weed control effect (activity level), Amaranthus retroflexus” value was 10. Cc1ccc(-c2nnc(C(F)(F)F)cc2OC(=O)OCC(C)(C)C)c([N+](=O)[O-])c1 [Compound 1-33] was tested, and the “weed control effect, Amaranthus retroflexus (activity level)” value was 10. For Cc1ccc(S(=O)(=O)Oc2cc(C(F)(F)F)nnc2-c2ccnc(F)c2)cc1 [Compound 1-126], the “weed control effect, Amaranthus retroflexus (activity level)” value was 10. With Oc1cc(C(F)(F)F)nnc1-c1ccc(F)nc1Cl [Compound 1003] the “weed control effect (activity level), Amaranthus retroflexus” value was 10. Cn1cc(-c2nnc(C(F)(F)F)cc2O)cn1 [Compound 839] was tested, and the “weed control effect (activity level), Amaranthus retroflexus” value was 10. For CC(C)=NOc1cc(C(F)(F)F)nnc1-c1ccc(F)c(F)c1 [Compound 1-169], the “weed control effect, Amaranthus retroflexus (activity level)” value was 10. With CCN(CC)C(=S)Oc1cc(C(F)(F)F)nnc1-c1ccc(F)cc1 [Compound 1-162] the “weed control effect, Amaranthus retroflexus (activity level)” value was 10. In the case of O=C(Oc1cc(C(F)(F)F)nnc1-c1ccc(Cl)cc1)c1ccccc1Cl [Compound 1-83], the “weed control effect, Amaranthus retroflexus (activity level)” value was 10. With Cc1ccc(-c2nnc(C(F)(F)F)cc2O)cn1 [Compound 974] the “weed control effect (activity level), Amaranthus retroflexus” value was 10. With CCO/C=C/C(=O)Oc1cc(C(F)(F)F)nnc1-c1cccc(F)c1 [Compound 1-75] the “weed control effect, Amaranthus retroflexus (activity level)” value was 10.

Each compound was assayed on Chenopodiaceae (assay: Post-emergence test, weed control effect). Conditions: Dose 3000 g/ha, after 3 weeks.
Type: in vivo
Method in brief: as §1
With Cn1cc(S(=O)(=O)Oc2cc(C(F)(F)F)nnc2-c2cccc(F)c2)cn1 [Compound 1-151] the “weed control effect, Chenopodiaceae (activity level)” value (“weed control effect, Chenopodiaceae” below) was 10. Oc1cc(C(F)(F)F)nnc1-c1ccccc1Br [Compound 772] was tested, and the “weed control effect (activity level), Chenopodiaceae” value was 10. Cc1nc2cc(-c3nnc(C(F)(F)F)cc3O)ccc2o1 [Compound 597] was tested, and the “weed control effect (activity level), Chenopodiaceae” value was 10. In the case of CCn1nccc1-c1nnc(C(F)(F)F)cc1O [Compound 826], the “weed control effect (activity level), Chenopodiaceae” value was 10. In the case of Oc1cc(C(F)(F)F)nnc1-c1cncc(C(F)(F)F)c1 [Compound 977], the “weed control effect (activity level), Chenopodiaceae” value was 10. For CN(C)c1ccc(C(=O)Oc2cc(C(F)(F)F)nnc2-c2cccc(F)c2)cc1 [Compound 1-90], the “weed control effect, Chenopodiaceae” value was 10. For O=S(=O)(Oc1cc(C(F)(F)F)nnc1-c1ccc(F)c(F)c1)c1ccc(Cl)cc1F [Compound 1-128], the “weed control effect, Chenopodiaceae” value was 10. Oc1cc(C(F)(F)F)nnc1-c1cncc(Br)c1 [Compound 967] was tested, and the “weed control effect (activity level), Chenopodiaceae” value was 10. Oc1cc(C(F)(F)F)nnc1-c1cnc(F)cc1F [Compound 989] was tested, and the “weed control effect (activity level), Chenopodiaceae” value was 10. Cc1ccc(-c2nnc(C(F)(F)F)cc2OC(=O)OCC(C)(C)C)c([N+](=O)[O-])c1 [Compound 1-33] was tested, and the “weed control effect, Chenopodiaceae” value was 10. With Cc1ccc(S(=O)(=O)Oc2cc(C(F)(F)F)nnc2-c2ccnc(F)c2)cc1 [Compound 1-126] the “weed control effect, Chenopodiaceae” value was 10. For Oc1cc(C(F)(F)F)nnc1-c1ccc(F)nc1Cl [Compound 1003], the “weed control effect (activity level), Chenopodiaceae” value was 10. In the case of Cn1cc(-c2nnc(C(F)(F)F)cc2O)cn1 [Compound 839], the “weed control effect (activity level), Chenopodiaceae” value was 10. With CC(C)=NOc1cc(C(F)(F)F)nnc1-c1ccc(F)c(F)c1 [Compound 1-169] the “weed control effect, Chenopodiaceae” value was 10. For CCN(CC)C(=S)Oc1cc(C(F)(F)F)nnc1-c1ccc(F)cc1 [Compound 1-162], the “weed control effect, Chenopodiaceae” value was 10. For O=C(Oc1cc(C(F)(F)F)nnc1-c1ccc(Cl)cc1)c1ccccc1Cl [Compound 1-83], the “weed control effect, Chenopodiaceae” value was 10. Cc1ccc(-c2nnc(C(F)(F)F)cc2O)cn1 [Compound 974] was tested, and the “weed control effect (activity level), Chenopodiaceae” value was 10. With CCO/C=C/C(=O)Oc1cc(C(F)(F)F)nnc1-c1cccc(F)c1 [Compound 1-75] the “weed control effect, Chenopodiaceae” value was 10.

These compounds were tested on Rorippa indica (assay: Post-emergence test, weed control effect). Conditions: Dose 3000 g/ha, after 3 weeks.
Type: in vivo
Method in brief: as §1
For Cn1cc(S(=O)(=O)Oc2cc(C(F)(F)F)nnc2-c2cccc(F)c2)cn1 [Compound 1-151], the “weed control effect, Rorippa indica (activity level)” value (“weed control effect, Rorippa indica” for short) was 10. Oc1cc(C(F)(F)F)nnc1-c1ccccc1Br [Compound 772] was tested, and the “weed control effect (activity level), Rorippa indica” value was 10. With Cc1nc2cc(-c3nnc(C(F)(F)F)cc3O)ccc2o1 [Compound 597] the “weed control effect (activity level), Rorippa indica” value was 10. With CCn1nccc1-c1nnc(C(F)(F)F)cc1O [Compound 826] the “weed control effect (activity level), Rorippa indica” value was 10. Oc1cc(C(F)(F)F)nnc1-c1cncc(C(F)(F)F)c1 [Compound 977] was tested, and the “weed control effect (activity level), Rorippa indica” value was 10. In the case of CN(C)c1ccc(C(=O)Oc2cc(C(F)(F)F)nnc2-c2cccc(F)c2)cc1 [Compound 1-90], the “weed control effect, Rorippa indica” value was 10. For O=S(=O)(Oc1cc(C(F)(F)F)nnc1-c1ccc(F)c(F)c1)c1ccc(Cl)cc1F [Compound 1-128], the “weed control effect, Rorippa indica” value was 10. In the case of Oc1cc(C(F)(F)F)nnc1-c1cncc(Br)c1 [Compound 967], the “weed control effect (activity level), Rorippa indica” value was 10. With Oc1cc(C(F)(F)F)nnc1-c1cnc(F)cc1F [Compound 989] the “weed control effect (activity level), Rorippa indica” value was 10. In the case of Cc1ccc(-c2nnc(C(F)(F)F)cc2OC(=O)OCC(C)(C)C)c([N+](=O)[O-])c1 [Compound 1-33], the “weed control effect, Rorippa indica” value was 10. In the case of Cc1ccc(S(=O)(=O)Oc2cc(C(F)(F)F)nnc2-c2ccnc(F)c2)cc1 [Compound 1-126], the “weed control effect, Rorippa indica” value was 10. For Oc1cc(C(F)(F)F)nnc1-c1ccc(F)nc1Cl [Compound 1003], the “weed control effect (activity level), Rorippa indica” value was 10. With Cn1cc(-c2nnc(C(F)(F)F)cc2O)cn1 [Compound 839] the “weed control effect (activity level), Rorippa indica” value was 10. In the case of CC(C)=NOc1cc(C(F)(F)F)nnc1-c1ccc(F)c(F)c1 [Compound 1-169], the “weed control effect, Rorippa indica” value was 10. For CCN(CC)C(=S)Oc1cc(C(F)(F)F)nnc1-c1ccc(F)cc1 [Compound 1-162], the “weed control effect, Rorippa indica” value was 10. With O=C(Oc1cc(C(F)(F)F)nnc1-c1ccc(Cl)cc1)c1ccccc1Cl [Compound 1-83] the “weed control effect, Rorippa indica” value was 10. In the case of Cc1ccc(-c2nnc(C(F)(F)F)cc2O)cn1 [Compound 974], the “weed control effect (activity level), Rorippa indica” value was 10. For CCO/C=C/C(=O)Oc1cc(C(F)(F)F)nnc1-c1cccc(F)c1 [Compound 1-75], the “weed control effect, Rorippa indica” value was 10.
